Structures are written as SMILES. A value given as a limit tells only on which side of the number the result lay.

The subject of the assay is p62 puncta in HeLa cells. The assay can be described thus: p62 puncta assay (immunocytochemistry and imaging, EVOS M7000 or Operetta CLS). The format is cell-based. The conditions noted are these: Homo sapiens, fold change in p62 puncta levels relative to DMSO control, 24 hr. How it is done:
HeLa cells were seeded in coated 96-well plates (10,000 cells) and allowed to adhere overnight. After 24 hours of treatment with either vehicle (DMSO) or test compounds, the media was discarded, and cells were rinsed with ice-cold 1×PBS before fixation by 4% formaldehyde or paraformaldehyde for 20 min. Cells were then washed with 1×PBS and permeabilized with 0.1% Triton X-100 in PBS for 20 min and blocked with Blocking Buffer in PBS for 1 hour. The cells were incubated thereafter for 1 hour with anti-p62 primary antibody in Blocking Buffer, followed by incubation with secondary antibody for 1 hour. DAPI dye was used to visualize nuclei of fixed cells. The blocking buffer used were 5% Fetal Bovine Serum (FBS, ThermoFIsher Scientific, 10270106) and Li-cor Intercept (PBS) Blocking Buffer (Li-cor, 927-70001). The primary antibody used was mouse anti-p62 primary antibody (Novus Biologicals, H00008878-MO1). The secondary antibodies used were goat anti-mouse Alexa Fluor Plus 488 secondary antibody (Invitrogen, GOXMS) and goat anti-mouse Alexa Fluor 488 secondary antibody (Invitrogen, A-11029). The DAPI dyes used were DAPI dye (Invitrogen, 62248) and DAPI dye (Invitrogen, D1306).
For the EVOS M7000 System, cells were imaged on the EVOS M7000 microscope using a 20× air objective (Nikon, N.A 0.45). DAPI and p62 channels were illuminated with LED light cubes using integrated hard-coated filter sets for DAPI (357/447 nm) and GFP (470/525 nm) respectively. Images were analysed for p62 puncta count on the Celeste 6.0 software.
For the Operetta CLS System, cells were imaged on the Operetta CLS using a 63× water objective on the DAPI and Alexa 488 channels. Images were analysed for p62 puncta count on the Harmony 5.1 software.
HeLa cells were treated with compounds for 24 hours to evaluate the effect of these compounds on p62 puncta activity. The resulting changes in levels of p62 puncta were assessed by imaging, either on the EVOS M7000 or Operetta CLS systems as described in experimental procedures. The fold change of p62 puncta levels induced by compound treatment relative to vehicle control (DMSO) was determined and summarized in Table 10.
On to `OCCNCc1ccc2cc(-c3ccccc3)oc2c1` [Compound 2, 2-(((2-phenylbenzofuran-6-yl)methyl)amino)ethan-1-ol], for which the fold induction at 5 µM was more than 2.

Take `OCCNCc1ccc2cc(Cc3ccc(Cl)cc3)oc2c1` [Compound 13, 2-(((2-(4-chlorobenzyl)benzofuran-6-yl)methyl)amino)ethan-1-ol]: the fold induction at 5 µM was more than 2.

For `Cc1c(Cc2ccccc2)oc2cc(CNCCO)ccc12` [Compound 42, 2-(((2-benzyl-3-methylbenzofuran-6-yl)methyl)amino)ethan-1-ol], the fold induction at 5 µM was less than 2.

Turning to `OCCNCc1ccc2cc(CCc3ccc(F)cc3)oc2c1` [Compound 49, 2-(((2-(4-fluorophenethyl)benzofuran-6-yl)methyl)amino)ethan-1-ol], the fold induction at 5 µM was more than 2. Molecule `OCCNCc1ccc2cc(Cc3ccccc3)oc2c1` [compound 1] came in with a fold induction at 5 µM of more than 2. For `OCCNCc1ccc2cc(Cc3ccc(F)cc3)oc2c1` [compound 12] the value was more than 2.

The term fold induction denotes the ratio of treated to control signal. Higher therefore signals a large rise in signal.

The record behind these values is patent US20250282742A1, “BENZOFURAN DERIVATIVES FOR TARGETING AUTOPHAGY” (Automera PTE. LTD, priority 2024, published 2025).
